These results are taken from patent US4603016A, “Cryogenic brine separation of water and isocyanates” (E. I. Du Pont de Nemours and Company, priority 1985, dated 1986).

This data set can be described thus: storage stability of isolated MIC preparations (GC determination of MIC content immediately following collection and after storage for two weeks). The class given is physicochemical. To be noted: for % MIC After Storage / % MIC As Isolated: GC; for % MIC After Storage: after storage for two weeks; for % MIC As Isolated: immediately following collection. How it is done:
This example illustrates the stability of MIC preparations isolated by the process of the present invention. The procedure described in Example 1 was substantially repeated at MMF liquid feed rates of 2 mL/min. As described in Example 3, samples of the product of the brine condenser were collected for one hour periods, weighed, and yields estimated. Each sample was then analyzed by GC to determine MIC content immediately following collection, and again after storage for two weeks.

For the compound `CN=C=O` [MIC, methyl isocyanate], the “% MIC After Storage” value runs as follows: (1st hr sample) 92.3%; (2nd hr sample) 92.3%; (3rd hr sample) 93.1%; (4th hr sample) 95.0%; (5th hr sample) 95.4%. The “% MIC As Isolated” value (1st hr sample) is above 98%; the “% MIC As Isolated” value (2nd hr sample) is above 98%; the “% MIC As Isolated” value (3rd hr sample) is above 98%; the “% MIC As Isolated” value (4th hr sample) is listed as above 98%; the “% MIC As Isolated” value (5th hr sample) was above 98%. The “degradation of product MIC during storage” value (storage for two weeks, all samples) is “minimal degradation”.
